{
  "source": "patent US20120309821A1",
  "about": "“Use of epigallocatechin-3-gallate for immune regulation” (NATIONAL DEFENSE MEDICAL CENTER, priority 2011, published 2012)",
  "type_in_all_cases": "in vivo, mouse",
  "key": {"[1]": {"system": "CD3+CD69+ cells (activated T cells)", "assay": "T cell activation in splenocytes by flow cytometry", "settings": "120 mg/kg by gavage daily; week 34; increase seen in disease control", "method": "Female NZB/W F1 mice were purchased from the Animal Center of the National Taiwan University (Taipei, Taiwan, ROC) and, at 12 weeks of age, were divided into two groups, one of which was given normal saline and served as the disease control, while the other was given 120 mg/kg body weight of EGCG (Ryss Lab, Inc., CA, USA) (this dose is a slight modification of those used in previous in vivo studies) by gavage daily till sacrificed at 34-weeks-old. 8-Week-old NZB/W F1 female mice (prior to onset of autoantibody production) were used as normal controls. Urine samples were collected in metabolic cages every 2 weeks and urine protein levels were measured, and serum samples were used to measure serum levels of blood urea nitrogen (BUN) and creatinine (Cr) as described previously (Ka, S. M. et al. Decoy receptor 3 ameliorates an autoimmune crescentic glomerulonephritis model in mice. J Am Soc Nephrol 18:2473-2485; 2007). All animal experiments were performed upon the ethical approval of the Institutional Animal Care and Use Committee of the National Defense Medical Center, Taiwan and according to the ethical rules in the NIH Guide for the Care and Use of Laboratory Animals. […]"}, "IL-18": {"system": "IL-18", "assay": "Serum IL-18 ELISA", "settings": "120 mg/kg by gavage daily; week 34; vs disease control mice", "method": "Female NZB/W F1 mice were purchased from the Animal Center of the National Taiwan University (Taipei, Taiwan, ROC) and, at 12 weeks of age, were divided into two groups, one of which was given normal saline and served as the disease control, while the other was given 120 mg/kg body weight of EGCG (Ryss Lab, Inc., CA, USA) (this dose is a slight modification of those used in previous in vivo studies) by gavage daily till sacrificed at 34-weeks-old. 8-Week-old NZB/W F1 female mice (prior to onset of autoantibody production) were used as normal controls. Urine samples were collected in metabolic cages every 2 weeks and urine protein levels were measured, and serum samples were used to measure serum levels of blood urea nitrogen (BUN) and creatinine (Cr) as described previously (Ka, S. M. et al. Decoy receptor 3 ameliorates an autoimmune crescentic glomerulonephritis model in mice. J Am Soc Nephrol 18:2473-2485; 2007). All animal experiments were performed upon the ethical approval of the Institutional Animal Care and Use Committee of the National Defense Medical Center, Taiwan and according to the ethical rules in the NIH Guide for the Care and Use of Laboratory Animals. Serum levels of IL-1β and IL-18 were measured using commercial ELISA kits (BD Biosciences) according to the manufacturer's instructions."}, "NLRP3 mRNA": {"system": "NLRP3 mRNA", "assay": "Renal NLRP3 mRNA by real-time PCR", "settings": "120 mg/kg by gavage daily; week 34; increase seen in disease control", "method": "(§1) Female NZB/W F1 mice were purchased from the Animal Center of the National Taiwan University (Taipei, Taiwan, ROC) and, at 12 weeks of age, were divided into two groups, one of which was given normal saline and served as the disease control, while the other was given 120 mg/kg body weight of EGCG (Ryss Lab, Inc., CA, USA) (this dose is a slight modification of those used in previous in vivo studies) by gavage daily till sacrificed at 34-weeks-old. 8-Week-old NZB/W F1 female mice (prior to onset of autoantibody production) were used as normal controls. Urine samples were collected in metabolic cages every 2 weeks and urine protein levels were measured, and serum samples were used to measure serum levels of blood urea nitrogen (BUN) and creatinine (Cr) as described previously (Ka, S. M. et al. Decoy receptor 3 ameliorates an autoimmune crescentic glomerulonephritis model in mice. J Am Soc Nephrol 18:2473-2485; 2007). All animal experiments were performed upon the ethical approval of the Institutional Animal Care and Use Committee of the National Defense Medical Center, Taiwan and according to the ethical rules in the NIH Guide for the Care and Use of Laboratory Animals."}, "[2]": {"system": "NZB/W F1 lupus-prone mice", "assay": "Kidney histopathological evaluation (H&E)", "settings": "120 mg/kg by gavage daily; week 34; H&E kidney sections; vs disease control mice", "method": "as §1, with “Animals. Formalin-fixed and paraffin-embedded renal sections were prepared for pathologic evaluation.” for “Animals.”"}},
  "data": [
    {"substance": "Epigallocatechin-3-gallate [EGCG]", "values": [
      {"measurement": "percentage of CD3+CD69+ cells (activated T cells) in CD3+ splenocytes", "setting": "[1]", "result": "not inhibited"},
      {"measurement": "serum levels of IL-18", "setting": "IL-18", "result": "significantly lower"},
      {"measurement": "levels of NLRP3 mRNA in kidney tissues", "setting": "NLRP3 mRNA", "result": "inhibited"},
      {"measurement": "severe renal lesions (glomerular proliferation, crescents, interstitial inflammation, fibrosis)", "setting": "[2]", "result": "greatly reduced"}
    ]}
  ]
}
